The values that follow come from ChEMBL document CHEMBL5465560, “Selectivity Literature for EUbOPEN Chemogenomic Library” (2024).

Assay [1] deals with T1, Serine/threonine-protein kinase TAO3 (Homo sapiens) (UniProt Q9H2K8).
T1 sequence (whole entry): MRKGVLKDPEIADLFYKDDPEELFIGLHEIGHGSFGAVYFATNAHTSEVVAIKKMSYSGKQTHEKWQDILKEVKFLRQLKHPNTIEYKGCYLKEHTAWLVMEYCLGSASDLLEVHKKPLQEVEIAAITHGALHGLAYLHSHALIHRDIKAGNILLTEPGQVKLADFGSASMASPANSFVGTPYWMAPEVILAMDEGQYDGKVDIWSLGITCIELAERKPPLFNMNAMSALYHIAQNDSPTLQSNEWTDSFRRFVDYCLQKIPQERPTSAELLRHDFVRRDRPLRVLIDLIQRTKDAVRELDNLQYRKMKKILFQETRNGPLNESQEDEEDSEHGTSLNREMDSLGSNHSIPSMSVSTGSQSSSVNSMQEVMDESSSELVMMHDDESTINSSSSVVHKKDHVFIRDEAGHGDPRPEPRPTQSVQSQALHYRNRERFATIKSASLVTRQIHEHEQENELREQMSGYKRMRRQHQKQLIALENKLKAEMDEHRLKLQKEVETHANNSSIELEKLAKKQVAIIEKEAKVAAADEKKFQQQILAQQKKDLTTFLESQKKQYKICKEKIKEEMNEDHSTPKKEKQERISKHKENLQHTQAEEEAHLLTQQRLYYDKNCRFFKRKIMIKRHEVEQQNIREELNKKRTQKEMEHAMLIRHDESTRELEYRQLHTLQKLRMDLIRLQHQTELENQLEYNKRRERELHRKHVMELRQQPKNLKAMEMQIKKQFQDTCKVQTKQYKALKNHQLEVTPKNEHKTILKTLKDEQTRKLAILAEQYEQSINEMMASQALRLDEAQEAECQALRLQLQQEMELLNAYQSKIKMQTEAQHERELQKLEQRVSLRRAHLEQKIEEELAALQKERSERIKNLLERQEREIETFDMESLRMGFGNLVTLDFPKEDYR
In words: Selectivity interaction (KinomeScan (DiscoverX)) EUB0001079a TAOK3. The settings on record: at 1 µM.

In assay [2] the target is T2, Serine/threonine-protein kinase RIO1 (Homo sapiens) (UniProt Q9BRS2).
T2 sequence (whole entry): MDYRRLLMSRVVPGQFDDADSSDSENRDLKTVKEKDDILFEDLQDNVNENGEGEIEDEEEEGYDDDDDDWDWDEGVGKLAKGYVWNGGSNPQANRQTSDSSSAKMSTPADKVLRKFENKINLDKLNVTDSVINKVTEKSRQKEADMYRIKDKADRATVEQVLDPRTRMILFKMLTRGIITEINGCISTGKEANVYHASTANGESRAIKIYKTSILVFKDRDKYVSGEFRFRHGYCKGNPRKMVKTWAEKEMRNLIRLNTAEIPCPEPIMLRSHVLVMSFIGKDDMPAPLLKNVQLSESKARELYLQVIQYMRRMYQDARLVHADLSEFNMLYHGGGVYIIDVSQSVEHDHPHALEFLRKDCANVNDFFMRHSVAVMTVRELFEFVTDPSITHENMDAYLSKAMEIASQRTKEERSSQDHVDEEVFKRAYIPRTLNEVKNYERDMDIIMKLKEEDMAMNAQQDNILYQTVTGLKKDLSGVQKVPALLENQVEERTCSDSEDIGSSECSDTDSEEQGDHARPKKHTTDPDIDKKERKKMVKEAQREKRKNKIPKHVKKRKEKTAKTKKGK
In words: Selectivity interaction (KinomeScan (DiscoverX)) EUB0000695a RIOK1. The settings on record: at 100 nM.

For assay [3], the target named is T3, Inhibitor of nuclear factor kappa-B kinase subunit beta (Homo sapiens) (UniProt O14920).
T3 sequence (whole entry): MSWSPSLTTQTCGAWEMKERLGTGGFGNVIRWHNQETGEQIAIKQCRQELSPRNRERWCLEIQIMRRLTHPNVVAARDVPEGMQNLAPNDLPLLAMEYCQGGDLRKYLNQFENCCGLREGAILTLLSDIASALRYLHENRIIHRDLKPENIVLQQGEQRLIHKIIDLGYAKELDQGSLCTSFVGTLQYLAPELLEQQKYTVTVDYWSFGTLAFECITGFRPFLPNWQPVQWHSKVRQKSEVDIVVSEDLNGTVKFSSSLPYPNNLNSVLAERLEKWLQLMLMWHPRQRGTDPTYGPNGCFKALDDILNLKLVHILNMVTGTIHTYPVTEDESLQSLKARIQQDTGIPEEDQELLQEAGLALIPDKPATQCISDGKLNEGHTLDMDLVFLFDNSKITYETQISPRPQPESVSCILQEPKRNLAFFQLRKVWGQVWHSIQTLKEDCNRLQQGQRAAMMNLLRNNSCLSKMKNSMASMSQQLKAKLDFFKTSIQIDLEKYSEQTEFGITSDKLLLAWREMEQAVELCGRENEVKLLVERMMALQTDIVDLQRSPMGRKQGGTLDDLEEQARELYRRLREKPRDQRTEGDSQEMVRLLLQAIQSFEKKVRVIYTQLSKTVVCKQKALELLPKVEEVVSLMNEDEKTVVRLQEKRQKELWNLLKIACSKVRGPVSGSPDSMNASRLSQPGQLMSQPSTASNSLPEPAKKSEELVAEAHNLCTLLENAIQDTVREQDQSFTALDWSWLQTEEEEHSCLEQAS
In words: Selectivity interaction (Kinase panel (KiNativ target engagement assay in Jurkat cells)) EUB0001635a IKBKB. In kind it is cell-based. The conditions noted are these: Selectivity number of off-targets 0.0, Selectivity number of targets 233.0, Source Knowledge https://www.sciencedirect.com/science/article/pii/S2451945619300674?via%3Dihub, at 1 µM.

`Nc1cnc(N2CCc3cc(S(=O)(=O)Nc4c(F)cc(Cl)cc4F)cc(N4CCCC4=O)c32)nc1` [TP-020n]: the % of control in assay [1] turned out to be 70%.
On to `Cc1cc(F)c(C(=O)Nc2cccc(-c3nncn3C(C)C)n2)cc1-n1cnc(C2CC2)c1`, for which the % of control in assay [2] amounted to 100%.
On to `C=CC(=O)Nc1ccc(C(=O)Nc2[nH]nc3c2CN(C(=O)N[C@H](CN(C)C)c2ccccc2)C3(C)C)cc1`, for which the % of engagement in assay [3] was -20.2%.
